Data: US6376688B1, “Modified polyunsaturated fatty acids” (Peptide Technology Limited, priority 1994, dated 2002)
Read-outs that look alike come from different tables or passages of the source.

Assays:
[1] = test system: chloroquine sensitive P. falciparum; assay: Direct antimalarial activity of novel fatty acids (malaria growth inhibition, 3H-hypoxanthine); type: cell-based
Description: The plates were then incubated overnight. Individual well contents were collected onto glass filter paper and incorporated 3H measured in a liquid scintillation counter. Percent growth inhibition of the parasite was then calculated.

TNFα production = assay: PHA-induced TNFα production by mononuclear cells (ELISA); type: cell-based, human
Description: (§1) Mononuclear cells were separated from peripheral blood of normal human donors as described by Ferrante and Thong (1978. . . ). The mononuclear cells were resuspended in RPMI-1640 containing 20% human AB serum and placed into 96 well microtrays (50 μl per well, cell density […]). Fatty acid (66 μm) was then added in 50 μl and pre-incubated with the cells for 30 min at 37° C. in 5% CO2. Mitogen (PHA, ConA, PWM, Staph. aureus) was then added in 100 μl and the cells incubated for 66 hours at 37° C. in 5% CO2 before the addition of tritiated thymidine (1 μCi/well). After a total of 72 h in culture the cells were harvested and proliferation (thymidine incorporation) and supernatant's assayed for the presence of cytokines. Cytokine levels in culture supernatants were determined by specific ELISA using anti-cytokine antibodies. The following cytokine levels were determined TNFα, TNFβ, interferon-γ, IL-1β, IL-2.

P. falciparum = assay: Fatty acid stimulated neutrophil-mediated anti-malarial activity; type: cell-based; conditions: for inhibition relative to 22:6 (%) at 16 µM: Plasmodium falciparum
Description: To overcome fatty acid insolubility in aqueous solution mixed dipalmitoyl phophatidylcholine (DPC, 400 μg): fatty acid (100 μg) micells were prepared in HBSS by sonication. Neutrophils were pretreated for 30 min at 37° C. In some experiments PUFA were solubilized in ethanol. Aliquots of RBC (5×10^6 with […] parasitaemia) was mixed with neutrophils […] in the wells of a 96-well microtitre plate and than incubated for 2 hr at 37° C. in 5% CO2 in air before adding 1 μCi of 3H-hypoxanthine. The plates were then incubated overnight. Individual well contents were collected onto glass filter paper and incorporated 3H measured in a liquid scintillation counter. Percent growth inhibition of the parasite was then calculated.

[2] = test system: human umbilical vein endothelial cells; assay: TNFα-induced expression of E-selectin (ELAM-1) by human umbilical vein endothelial cells; type: cell-based; conditions: FIG. 5
Description: Human umbilical cord endothelial cells (5×10^4.passage 1) were plated onto the centre 60 wells of 96 well microtrays, the remaining wells were filled with pyrongen-free distilled water to reduce evaporation in the wells containing cells. The cells were fed with fresh medium (M199 supplemented with 20% FCS and endothelial cell growth supplement) every second day until confluent. On the day preceding the assay the cells were washed with HBSS and re-fed. At the time of assay the medium was aspirated and fatty acides prepared in media were added to each well and incubated for various times as shown in FIGS. At 37-0-C in 5% CO2. After this incubation the cells were washed and treated with either TNF or PMA before being washed three times in PBS and fixed (100 μl, 0.025% glutaraldehyde in PBS, overnight at 4° C.). The wells were washed with PBS and either anti-ELAM (Becton-Dickinson, 100 μl, 1/1.000 in M199 containing 20% FCS) or anti-ICAM (Immunotech, 100 μl, […] in M199 containing 20% FCS) was added and incubated for 1 hour at room temperature after which the wells were washed with PBS ant 100 μl of rabbit anti-mouse Ig-HRP conjugate was added (1/1.000. Dako). A further incubation at room temperature for one hour followed before the plates were washed three time prior to the addition of 100 μl of the substrate (ABTS). Colour development was measured at 410 nm in a microplate reader.

[3] = test system: cytokine production (TNFα, interferon, IL-2); assay: PHA-induced cytokine production by human peripheral blood mononuclear cells (FIG. 3, FIG. 4); type: cell-based; conditions: macrophage and T cell-derived cytokines
Description: as §1, with “cytokines.” for “cytokines. Cytokine levels in culture supernatants were determined by specific ELISA using anti-cytokine antibodies. The following cytokine levels were determined TNFα, TNFβ, interferon-γ, IL-1β, IL-2.”
Cytokine levels in culture supernatants were determined by specific ELISA using anti-cytokine antibodies. The following cytokine levels were determined TNFα, TNFβ, interferon-γ, IL-1β, IL-2.

[4] = neutrophil-mediated killing of P. falciparum, Table 2
[5] = Table 5, second printing (stands where Table 6 is expected)

Compound: CC/C=C\CC(O)/C=C/C=C\CCCCCCCCOCC(=O)O (stereo not drawn) [16-OH-β-oxa 21:3 (n-3), Z,E,Z-(13-Hydroxy-9, 11, 15-octadecatrienyloxy)acetic acid]
- EC50 ([1]; Plasmodium falciparum): 40 µM
- inhibition at 20 µM (TNFα production; Homo sapiens, PUFA at 20 μM, Table 5, read-out: % INHIBITION OF CYTOKINE PRODUCTION (PUFA AT 20 μM)): 68%

Compound: CCCCCC(O)/C=C/C=C\C/C=C\CCCCCOCC(=O)O (stereo not drawn) [16-OH-β-oxa 21:3 (n-6), Z,Z,E-(13-Hydroxy-6,9,11-octadecatienyloxy)acetic acid]
- EC50 [1]: 50 µM
- % INHIBITION RELATIVE TO 22:6 AT 16 μM (P. falciparum; [4]): 33%
- % INHIBITION OF CYTOKINE PRODUCTION (PUFA AT 20 μM) (TNFα production; Table 5, first printing): 71%
- % INHIBITION OF CYTOKINE PRODUCTION (PUFA AT 20 μM) (TNFα production; [5]): 71%

Compound: CCCCCC=CCC=CCC=CCC=CCCCC(=O)O [20:4, 5,8,11,14-Eicosatetraenoic acid]
- effect on TNFα-induced expression of E-selectin [2]: inhibit TNFα-induced expression of E-selection

Compound: CCC=CCC=CCC=CCC=CCC=CCCCC(=O)O [20:5, 5,8, 11, 14, 17-eicosapentaenoic]
- effect on PHA-induced cytokine production [3]: inhibit in vitro production of macrophage and T cell-derived cytokines

Compound: CCC=CCC=CCC=CCC=CCC=CCC=CCCC(=O)O [22:6, 4,7, 10, 13, 16, 19-docosahexaenoic acid]
- effect on PHA-induced cytokine production [3]: inhibit in vitro production of macrophage and T cell-derived cytokines

Compound: CCCCC/C=C\C/C=C\C/C=C\C/C=C\CCCCSC(CC(=O)O)C(=O)O (stereo not drawn) [α-carboxymethyl-β-thia 23.4 (n-6)]
- EC50 [1]: 50 µM

Compound: CC/C=C\C/C=C\C/C=C\CCCCCCCCOCC(=O)O [β-oxa 21:3 (n-3), Z,Z,Z-(9, 12, 15-Octadecatrienyloxy) acetic acid]
- EC50 ([1]; Plasmodium falciparum): 30 µM
- inhibition relative to 22:6 (%) at 16 µM (P. falciparum; [4]): 45%
- % INHIBITION OF CYTOKINE PRODUCTION (PUFA AT 20 μM) (TNFα production; [5]): 39%

Compound: CCCCC/C=C\C/C=C\C/C=C\CCCCCOCC(=O)O [β-oxa 21:3 (n-6), Z,Z,Z-(6,9, 12-Octadecatrienyloxy) acetic acid]
- EC50 ([1]; Plasmodium falciparum): < 30 µM
- % INHIBITION OF CYTOKINE PRODUCTION (PUFA AT 20 μM) (TNFα production; [5]): 38%

Compound: CC/C=C\C/C=C\C/C=C\C/C=C\CCCCCOCC(=O)O [β-oxa 21:4 (n-3), Z,Z,Z,Z-(6,9, 12, 15-Octadecatetraenyloxy) acetic acid]
- EC50 ([1]; Plasmodium falciparum): 40 µM
- inhibition relative to 22:6 (%) at 16 µM (P. falciparum; [4]): 85%

Compound: CCCCC/C=C\C/C=C\C/C=C\C/C=C\CCCCOCC(=O)O [β-oxa 23.4 (n-6), Z,Z,Z,Z(5,8, 11, 14-Eicosatetraenyloxy) acetic acid]
- EC50 [1]: < 30 µM
- % INHIBITION OF CYTOKINE PRODUCTION (PUFA AT 20 μM) (TNFα production; Table 5, first printing): 25%
- % INHIBITION OF CYTOKINE PRODUCTION (PUFA AT 20 μM) (TNFα production; [5]): 25%

Compound: CC/C=C\C/C=C\C/C=C\C/C=C\C/C=C\C/C=C\CCCOCC(=O)O [β-oxa 25.6 (n-3), Z,Z,Z,Z,Z,Z-(4,7, 10, 13, 16, 19-Docosahexaenyloxy) acetic acid]
- EC50 ([1]; Plasmodium falciparum): < 60 µM

Compound: CC/C=C\C/C=C\C/C=C\CCCCCCCCSCC(=O)O [β-thia 21:3 (n-3), Z,Z,Z-(9,12,15-Octadecatrienylthio)acetic acid]
- EC50 ([1]; Plasmodium falciparum): 30 to 35 µM
- inhibition relative to 22:6 (%) at 16 µM (P. falciparum; [4]): 73%
- % INHIBITION OF CYTOKINE PRODUCTION (PUFA AT 20 μM) (TNFα production; [5]): 17%

Compound: CCCCC/C=C\C/C=C\C/C=C\C/C=C\CCCCSCC(=O)O [β-thia 23:4 (n-6), Z,Z,Z,Z-(5,8,11,14-Eicosatetraenylthio) acetic acid]
- EC50 ([1]; Plasmodium falciparum): 15 to 30 µM
- inhibition relative to 22:6 (%) at 16 µM (P. falciparum; [4]): 150%
- % INHIBITION OF CYTOKINE PRODUCTION (PUFA AT 20 μM) (TNFα production; [5]): 35%

Compound: CC/C=C\C/C=C\C/C=C\CCCCCCCCSCCC(=O)O [γ-thia 22.3 (n-3), Z,Z,Z-(9,12,15-Octadecatrienylthio)proponionic acid]
- EC50 [1]: 45 µM
- % INHIBITION OF CYTOKINE PRODUCTION (PUFA AT 20 μM) (TNFα production; Table 5, first printing): 25%
- % INHIBITION OF CYTOKINE PRODUCTION (PUFA AT 20 μM) (TNFα production; [5]): 25%

Compound: CCCCC/C=C\C/C=C\C/C=C\CCCCCSCCC(=O)O [γ-thia 22.3 (n-6), Z,Z,Z-(6,9,12-Octadecatrienylthio)propionic acid]
- EC50 [1]: 45 µM
- % INHIBITION OF CYTOKINE PRODUCTION (PUFA AT 20 μM) (TNFα production; Table 5, first printing): 41%
- % INHIBITION OF CYTOKINE PRODUCTION (PUFA AT 20 μM) (TNFα production; [5]): 41%

Compound: Z,Z,Z,Z,Z,Z-(9,12,15-Octadecatrienylthio)acetic acid [β-thia 25.6 (n-3)]
- EC50 [1]: 25 µM
- % INHIBITION RELATIVE TO 22:6 AT 16 μM (P. falciparum; [4]): 47%
- % INHIBITION OF CYTOKINE PRODUCTION (PUFA AT 20 μM) (TNFα production; Table 5, first printing): 90%
- % INHIBITION OF CYTOKINE PRODUCTION (PUFA AT 20 μM) (TNFα production; [5]): 90%

Compound: Z,Z,Z,Z-(5,8,11,14-Eicosatetraenylthio) propionic acid [γ-thia 24.4 (n-6)]
- EC50 [1]: 15 µM
- % INHIBITION RELATIVE TO 22:6 AT 16 μM (P. falciparum; Table 2, second printing (stands where Table 3 is expected)): 91%
- % INHIBITION RELATIVE TO 22:6 AT 16 μM (P. falciparum; Table 2, third printing (stands where Table 4 is expected)): 91%
- % INHIBITION RELATIVE TO 22:6 AT 16 μM (P. falciparum; [4]): 91%
- % INHIBITION OF CYTOKINE PRODUCTION (PUFA AT 20 μM) (TNFα production; Table 5, first printing): 34%
- % INHIBITION OF CYTOKINE PRODUCTION (PUFA AT 20 μM) (TNFα production; [5]): 34%

Compound: Z,Z,Z,Z-(6,9,12-Octadecatrienylthio)acetic acid [β-thia 21:3 (n-6)]
- EC50 [1]: 30 to 50 µM
- % INHIBITION OF CYTOKINE PRODUCTION (PUFA AT 20 μM) (TNFα production; Table 5, first printing): 17%
- % INHIBITION OF CYTOKINE PRODUCTION (PUFA AT 20 μM) (TNFα production; [5]): 17%
